A short description of assay [1]: Antiproliferative activity against human HL60 cells assessed as growth inhibition after 72 hrs by MTT assay. In kind it is functional, cell-based. The settings on record: HL-60, 72 h. (Tetrazolium assays rely on reduction of a dye to a coloured formazan, in cell work by metabolically active cells.)
The nature of assay [2]: Antiproliferative activity against human vincristine-resistant HL60/Vinc cells assessed as growth inhibition after 72 hrs by MTT assay. The format is functional. The settings on record: Homo sapiens, HL60/vinc, 72 h.
The subject of assay [3] is LoVo. Briefly: Antiproliferative activity against human LoVo cells assessed as growth inhibition after 72 hrs by SRB method. As to conditions: Homo sapiens, LoVo, 72 h. The format is functional, cell-based. In general terms: The SRB assay estimates cell density from bound dye.
Assay [4] can be described thus: Antiproliferative activity against human doxorubicin-resistant LoVo/DX cells assessed as growth inhibition after 72 hrs by SRB method. The format is functional, cell-based.
Assay [5] has as its system HT-29. Briefly: Antiproliferative activity against human HT-29 cells assessed as growth inhibition after 72 hrs by SRB method. The format is functional, cell-based. As to conditions: Homo sapiens, HT-29, 72 h.
The nature of assay [6]: Antiproliferative activity against human LS180 cells assessed as growth inhibition after 72 hrs by SRB method. The format is functional, cell-based. The settings on record: Homo sapiens, LS180, 72 h.
Assay [7] can be described thus: Antiproliferative activity against human SW707 cells assessed as growth inhibition after 72 hrs by SRB method. The format is functional, cell-based. As to conditions: Homo sapiens, SW707, 72 h.
Another assay has as its system BALB/3T3. The experiment in a line: Antiproliferative activity against mouse BALB/3T3 cells assessed as growth inhibition after 72 hrs by SRB method. In kind it is cell-based. As to conditions: BALB/3T3, 72 h.
Assay [8] has as its system HL-60. The experiment in a line: Selectivity index, ratio of IC50 for mouse BALB/3T3 cells to IC50 for human HL60 cells. The format is functional.
Assay [9] is described as follows: Selectivity index, ratio of IC50 for mouse BALB/3T3 cells to IC50 for human HL60/Vinc cells. In kind it is functional.
The subject of assay [10] is LoVo. The experiment in a line: Selectivity index, ratio of IC50 for mouse BALB/3T3 cells to IC50 for human LoVo cells. The format is functional.
Assay [11] in a line: Selectivity index, ratio of IC50 for mouse BALB/3T3 cells to IC50 for human LoVo/DX cells. The format is functional.
For assay [12], the system named is HT-29. Briefly: Selectivity index, ratio of IC50 for mouse BALB/3T3 cells to IC50 for human HT-29 cells. In kind it is functional.
Assay [13] in a line: Selectivity index, ratio of IC50 for mouse BALB/3T3 cells to IC50 for human LS180 cells. In kind it is functional.
Assay [14] in a line: Selectivity index, ratio of IC50 for mouse BALB/3T3 cells to IC50 for human SW707 cells. In kind it is functional.
Assay [15] deals with HL-60. Briefly: Resistance index, ratio of IC50 for human HL60/Vinc cells to IC50 for human HL60 cells.
Assay [16] deals with LoVo. Briefly: Resistance index, ratio of IC50 for human LoVo/DX cells to IC50 for human LoVo cells.
Assay [17] concerns Staphylococcus aureus. Briefly: Antimicrobial activity against Staphylococcus aureus […] 4163 after 18 hrs by two-fold serial microdilution method. In kind it is functional. A general note: In broth dilution the organism is exposed to a series of concentrations in liquid medium.
Assay [18] concerns Staphylococcus aureus. The experiment in a line: Antimicrobial activity against Staphylococcus aureus ATCC 25923 after 18 hrs by two-fold serial microdilution method. The format is functional. As to conditions: ATCC 25923, 18 h.
The test system of assay [19] is Staphylococcus aureus. The experiment in a line: Antimicrobial activity against Staphylococcus aureus ATCC 6538 after 18 hrs by two-fold serial microdilution method. In kind it is functional. The settings on record: ATCC 6538, 18 h.
Assay [20] relates to Staphylococcus aureus. The experiment in a line: Antimicrobial activity against Staphylococcus aureus ATCC 29213 after 18 hrs by two-fold serial microdilution method. The format is functional. The settings on record: ATCC 29213, 18 h.
Assay [21] has as its system Staphylococcus epidermidis. Briefly: Antimicrobial activity against Staphylococcus epidermidis ATCC 12228 after 18 hrs by two-fold serial microdilution method. As to conditions: ATCC 12228, 18 h. The format is functional.
The subject of assay [22] is Staphylococcus epidermidis. Briefly: Antimicrobial activity against Staphylococcus epidermidis ATCC 35984 after 18 hrs by two-fold serial microdilution method. The format is functional. As to conditions: ATCC 35984, 18 h.
For assay [23], the system named is Staphylococcus aureus. The experiment in a line: Antimicrobial activity against methicillin-resistant Staphylococcus aureus 452/11 after 18 hrs by two-fold serial microdilution method. In kind it is functional. The settings on record: 452/11, 18 h.
The test system of assay [24] is Staphylococcus aureus. Briefly: Antimicrobial activity against methicillin-resistant Staphylococcus aureus 456/11 after 18 hrs by two-fold serial microdilution method. In kind it is functional. The settings on record: 456/11, 18 h.
The test system of assay [25] is Staphylococcus aureus. The experiment in a line: Antimicrobial activity against methicillin-resistant Staphylococcus aureus 462/11 after 18 hrs by two-fold serial microdilution method. In kind it is functional. The settings on record: 462/11, 18 h.
The subject of assay [26] is Staphylococcus aureus. The experiment in a line: Antimicrobial activity against methicillin-resistant Staphylococcus aureus 514/11 after 18 hrs by two-fold serial microdilution method. The format is functional. The settings on record: 514/11, 18 h.
For assay [27], the system named is Staphylococcus aureus. Briefly: Antimicrobial activity against methicillin-resistant Staphylococcus aureus 522/12 after 18 hrs by two-fold serial microdilution method. The format is functional. The settings on record: 522/12, 18 h.
Assay [28] relates to Staphylococcus aureus. The experiment in a line: Antimicrobial activity against methicillin-resistant Staphylococcus aureus 537/12 after 18 hrs by two-fold serial microdilution method. The format is functional. The settings on record: 537/12, 18 h.
The test system of assay [29] is Staphylococcus aureus. Briefly: Antimicrobial activity against methicillin-resistant Staphylococcus aureus 572/12 after 18 hrs by two-fold serial microdilution method. As to conditions: 572/12, 18 h. The format is functional.
Assay [30] relates to Staphylococcus aureus. Briefly: Antimicrobial activity against methicillin-resistant Staphylococcus aureus 573/12 after 18 hrs by two-fold serial microdilution method. The format is functional. The settings on record: 573/12, 18 h.
Assay [31] deals with Staphylococcus aureus. The experiment in a line: Antimicrobial activity against methicillin-resistant Staphylococcus aureus 585/12 after 18 hrs by two-fold serial microdilution method. In kind it is functional. The settings on record: 585/12, 18 h.
Assay [32] has as its system Staphylococcus aureus. Briefly: Antimicrobial activity against methicillin-resistant Staphylococcus aureus 586/12 after 18 hrs by two-fold serial microdilution method. In kind it is functional. The settings on record: 586/12, 18 h.
Assay [33] has as its system Staphylococcus epidermidis. The experiment in a line: Antimicrobial activity against methicillin-resistant Staphylococcus epidermidis 459/11 after 18 hrs by two-fold serial microdilution method. The format is functional. As to conditions: 459/11, 18 h.
For assay [34], the system named is Staphylococcus epidermidis. Briefly: Antimicrobial activity against methicillin-resistant Staphylococcus epidermidis 460/11 after 18 hrs by two-fold serial microdilution method. The settings on record: 460/11, 18 h. In kind it is functional.
The test system of assay [35] is Staphylococcus epidermidis. The experiment in a line: Antimicrobial activity against methicillin-resistant Staphylococcus epidermidis 461/11 after 18 hrs by two-fold serial microdilution method. As to conditions: 461/11, 18 h. In kind it is functional.
Assay [36] has as its system Staphylococcus epidermidis. Briefly: Antimicrobial activity against methicillin-resistant Staphylococcus epidermidis 466/11 after 18 hrs by two-fold serial microdilution method. The format is functional. The settings on record: 466/11, 18 h.
Assay [37] concerns Staphylococcus epidermidis. Briefly: Antimicrobial activity against methicillin-resistant Staphylococcus epidermidis 467/11 after 18 hrs by two-fold serial microdilution method. In kind it is functional. The settings on record: 467/11, 18 h.
The test system of assay [38] is Staphylococcus epidermidis. Briefly: Antimicrobial activity against methicillin-resistant Staphylococcus epidermidis 468/11 after 18 hrs by two-fold serial microdilution method. In kind it is functional. As to conditions: 468/11, 18 h.
The test system of assay [39] is Staphylococcus epidermidis. The experiment in a line: Antimicrobial activity against methicillin-resistant Staphylococcus epidermidis 469/11 after 18 hrs by two-fold serial microdilution method. The format is functional. The settings on record: 469/11, 18 h.
Assay [40] deals with Staphylococcus epidermidis. Briefly: Antimicrobial activity against methicillin-resistant Staphylococcus epidermidis 470/11 after 18 hrs by two-fold serial microdilution method. The settings on record: 470/11, 18 h. The format is functional.
Assay [41] has as its system Staphylococcus epidermidis. The experiment in a line: Antimicrobial activity against methicillin-resistant Staphylococcus epidermidis 488/11 after 18 hrs by two-fold serial microdilution method. In kind it is functional. As to conditions: 488/11, 18 h.
Assay [42] relates to Staphylococcus epidermidis. The experiment in a line: Antimicrobial activity against methicillin-resistant Staphylococcus epidermidis 489/11 after 18 hrs by two-fold serial microdilution method. In kind it is functional. The settings on record: 489/11, 18 h.

Converted amounts (≈) assume the structure as drawn.

On to `CC[C@@H](C(=O)[C@@H](C)[C@@H](O)[C@H](C)[C@@H]1O[C@@H]([C@@H](CC)C(=O)OC[C@H]2O[C@@H](n3cc(F)c(=O)[nH]c3=O)C[C@@H]2O)CC[C@@H]1C)[C@H]1O[C@]2(C=C[C@@H](O)[C@]3(CC[C@@](C)([C@H]4CC[C@](O)(CC)[C@H](C)O4)O3)O2)[C@H](C)C[C@@H]1C`, for which the IC50 (in general, the point on the concentration scale where inhibition reaches its midpoint) in [1] was 370 nM; in assay [2], 2820 nM; in the assay on LoVo [3] it was 1460 nM; in assay [4], 930 nM; in the assay with HT-29 [5], 2020 nM; in assay [6], 2250 nM. Besides, the IC50 in assay [7] turned out to be 1990 nM; in the assay with BALB/3T3 it was 32300 nM. The “Selectivity Index” value in the assay on HL-60 [8] stood at 87.24; in assay [9], 11.45; in the assay on LoVo [10] it was 22.11; in assay [11], 34.71; with HT-29 [12], 15.98; in assay [13] it was 14.35. Moreover, the “Selectivity Index” value in assay [14] was 16.22. In addition, the “Ratio IC50” value in the assay with HL-60 [15] was found to be 7.62; in the assay on LoVo [16], 0.64. Moreover, the MIC (in general, the least concentration at which growth counts as inhibited) was 8.17 µM (≈ 8 µg/mL) against Staphylococcus aureus [17]; 8.17 µM (≈ 8 µg/mL) with Staphylococcus aureus [18]; 4.09 µM (≈ 4 µg/mL) in the assay on Staphylococcus aureus [19]; 4.09 µM (≈ 4 µg/mL) in the assay with Staphylococcus aureus [20]; 4.09 µM (≈ 4 µg/mL) in assay [21]; 4.09 µM (≈ 4 µg/mL) in [22]. In addition, the MIC with Staphylococcus aureus [23] came out at 32.7 µM (≈ 32 µg/mL); in the assay on Staphylococcus aureus [24], 32.7 µM (≈ 32 µg/mL); against Staphylococcus aureus [25], 32.7 µM (≈ 32 µg/mL); against Staphylococcus aureus [26] it was 8.17 µM (≈ 8 µg/mL); against Staphylococcus aureus [27], 8.17 µM (≈ 8 µg/mL); with Staphylococcus aureus [28], 8.17 µM (≈ 8 µg/mL). Also, the MIC came out at 8.17 µM (≈ 8 µg/mL) in the assay on Staphylococcus aureus [29]; 8.17 µM (≈ 8 µg/mL) with Staphylococcus aureus [30]; 16.3 µM (≈ 16 µg/mL) in the assay with Staphylococcus aureus [31]; 8.17 µM (≈ 8 µg/mL) against Staphylococcus aureus [32]; 32.7 µM (≈ 32 µg/mL) in [33]; 32.7 µM (≈ 32 µg/mL) in assay [34]. The MIC was determined as 32.7 µM (≈ 32 µg/mL) in assay [35]; 32.7 µM (≈ 32 µg/mL) in [36]; 32.7 µM (≈ 32 µg/mL) in assay [37]; 32.7 µM (≈ 32 µg/mL) in [38]; 32.7 µM (≈ 32 µg/mL) in [39]; 8.17 µM (≈ 8 µg/mL) in assay [40]. Besides, the MIC was 32.7 µM (≈ 32 µg/mL) in [41] and 8.17 µM (≈ 8 µg/mL) in [42].

Regarding `O=C(O)c1cn(C2CC2)c2cc(N3CCNCC3)c(F)cc2c1=O` [CIPROFLOXACIN], the MIC against Staphylococcus aureus [17] worked out at 0.76 µM (≈ 0.252 µg/mL); against Staphylococcus aureus [19] it was 0.76 µM (≈ 0.252 µg/mL); in assay [21], 0.76 µM (≈ 0.252 µg/mL); against Staphylococcus aureus [23], 96.7 µM (≈ 32 µg/mL); against Staphylococcus aureus [24] it was 96.7 µM (≈ 32 µg/mL); in the assay on Staphylococcus aureus [26], 96.7 µM (≈ 32 µg/mL). The MIC turned out to be 96.7 µM (≈ 32 µg/mL) in the assay with Staphylococcus aureus [27], 96.7 µM (≈ 32 µg/mL) in the assay on Staphylococcus aureus [30], 0.76 µM (≈ 0.252 µg/mL) in [35] and 0.76 µM (≈ 0.252 µg/mL) in [42].

`COc1cccc2c1C(=O)c1c(O)c3c(c(O)c1C2=O)C[C@@](O)(C(=O)CO)C[C@@H]3O[C@H]1C[C@H](N)[C@H](O)[C@H](C)O1` [DOXORUBICIN]: the IC50 in [2] was 880 nM; in the assay on LoVo [3], 150 nM; in [4], 5460 nM; in the assay with HT-29 [5], 890 nM; in assay [7], 180 nM; in the assay on BALB/3T3, 180 nM.

The values above are taken from ChEMBL document CHEMBL3414487, “Synthesis and biological activity of salinomycin conjugates with floxuridine” (Eur J Med Chem, 2015).
